# Literature values, collected in patent US20100028446A1, “TRANSPORT OF DRUGS VIA THE BLOOD-BRAIN BARRIER BY MEANS OF APOLIPOPROTEINS” (priority 2007, published 2010).
# Conditions: loaded on hydrophilic-protein nanoparticles coupled with apolipoprotein E
substance,measurement,value
Dalargin,transport across the blood-brain barrier,successfully transported across the blood-brain barrier
